How the values were obtained:
[1] = biological target: T1, D(2) dopamine receptor (Homo sapiens, UniProt P14416); assay: Inhibition of human dopamine D2L receptor expressed in intact CHO FlpIn cells assessed as inhibition of receptor-mediated mediated ERK1/2 phosphorylation by Alpha-Screen plate-based assay; format: cell-based
[2] = biological target: T1, D(2) dopamine receptor; assay: Displacement of [3H]-spiperone from human dopamine D2L receptor expressed in CHO FlpIn cell membrane measured after 3 hrs by topcount scintillation counting

T1 sequence (P14416 whole entry): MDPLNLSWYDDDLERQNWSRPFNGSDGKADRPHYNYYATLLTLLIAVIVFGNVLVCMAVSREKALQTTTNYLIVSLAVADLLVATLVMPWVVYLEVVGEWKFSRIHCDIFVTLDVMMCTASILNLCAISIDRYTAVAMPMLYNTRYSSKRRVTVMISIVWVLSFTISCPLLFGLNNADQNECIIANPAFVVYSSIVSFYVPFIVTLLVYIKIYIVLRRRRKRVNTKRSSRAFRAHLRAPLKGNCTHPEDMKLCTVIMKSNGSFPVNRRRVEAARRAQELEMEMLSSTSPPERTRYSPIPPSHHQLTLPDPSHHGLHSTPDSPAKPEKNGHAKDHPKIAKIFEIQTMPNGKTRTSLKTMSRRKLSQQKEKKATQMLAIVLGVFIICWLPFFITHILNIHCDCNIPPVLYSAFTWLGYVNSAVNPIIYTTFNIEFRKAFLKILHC

IC50 ([1]; read-out: IC50)	pIC50 ([1]; cho)	SMILES	also measured
776 nM		CCCCCCCCCC(=O)N1c2ccc(Cl)cc2N=C(N2CCN(C)CC2)c2ccccc21	
> 10000 nM	< 5	CN1CCN(C2=Nc3cc(Cl)ccc3N(C(=O)CCCCCCCCC(=O)N3c4ccc(Cl)cc4N=C(N4CCN(C)CC4)c4ccccc43)c3ccccc32)CC1	
> 10000 nM	< 5	CN1CCN(C2=Nc3cc(Cl)ccc3N(C(=O)CCCCCCCCCCCCC(=O)N3c4ccc(Cl)cc4N=C(N4CCN(C)CC4)c4ccccc43)c3ccccc32)CC1	
2080 nM		CN1CCN(C2=Nc3cc(Cl)ccc3N(NC(=O)CCCCC(=O)NN3c4ccc(Cl)cc4N=C(N4CCN(C)CC4)c4ccccc43)c3ccccc32)CC1	IC50 ([1]; read-out: pIC50 (converted)): 2040 nM
> 10000 nM	< 5	CN1CCN(C2=Nc3cc(Cl)ccc3N(NC(=O)CCCCCCCCCCC(=O)NN3c4ccc(Cl)cc4N=C(N4CCN(C)CC4)c4ccccc43)c3ccccc32)CC1	
1620 nM		CN1CCN(C2=Nc3cc(Cl)ccc3N(NC(=O)CCC(=O)N3CCN(C(=O)CCC(=O)NN4c5ccc(Cl)cc5N=C(N5CCN(C)CC5)c5ccccc54)CC3)c3ccccc32)CC1	
2630 nM		CN1CCN(C2=Nc3cc(Cl)ccc3N(NC(=O)CCCC(=O)N3CCN(C(=O)CCCC(=O)NN4c5ccc(Cl)cc5N=C(N5CCN(C)CC5)c5ccccc54)CC3)c3ccccc32)CC1	
2410 nM		CN1CCN(C2=Nc3cc(Cl)ccc3N(NC(=O)CCC(=O)OCCOC(=O)CCC(=O)NN3c4ccc(Cl)cc4N=C(N4CCN(C)CC4)c4ccccc43)c3ccccc32)CC1	
1460 nM		CCCCCCCCCC(=O)NCCCN1CCN(C2=Nc3cc(Cl)ccc3Nc3ccccc32)CC1	Ki ([2]; read-out: Ki): 9.1 nM; Ki ([2]; read-out: pKi (converted)): 8.91 nM
23 nM		O=C(CCCCCCC(=O)NCCCN1CCN(C2=Nc3cc(Cl)ccc3Nc3ccccc32)CC1)NCCCN1CCN(C2=Nc3cc(Cl)ccc3Nc3ccccc32)CC1	Ki ([2]; read-out: Ki): 1.41 nM; Ki ([2]; read-out: pKi (converted)): 1.35 nM
1120 nM		O=C(CCCCCCCCCCC(=O)NCCCN1CCN(C2=Nc3cc(Cl)ccc3Nc3ccccc32)CC1)NCCCN1CCN(C2=Nc3cc(Cl)ccc3Nc3ccccc32)CC1	IC50 ([1]; read-out: pIC50 (converted)): 1100 nM
11000 nM		O=C(CCCCCCCCCCCCC(=O)NCCCN1CCN(C2=Nc3cc(Cl)ccc3Nc3ccccc32)CC1)NCCCN1CCN(C2=Nc3cc(Cl)ccc3Nc3ccccc32)CC1	
7800 nM		O=C(CCCCCCCCCCCCCCCCC(=O)NCCCN1CCN(C2=Nc3cc(Cl)ccc3Nc3ccccc32)CC1)NCCCN1CCN(C2=Nc3cc(Cl)ccc3Nc3ccccc32)CC1	Ki ([2]; read-out: Ki): 269 nM; Ki ([2]; read-out: pKi (converted)): 245 nM

Second part, the molecule before the results:

SMILES	IC50 ([1]; read-out: IC50)	pIC50 ([1]; cho)	also measured
CN1CCN(C2=Nc3cc(Cl)ccc3N(C(=O)CCCCCCC(=O)N3c4ccc(Cl)cc4N=C(N4CCN(C)CC4)c4ccccc43)c3ccccc32)CC1	2660 nM		IC50 ([1]; read-out: pIC50 (converted)): 1780 nM
CN1CCN(C2=Nc3cc(Cl)ccc3N(C(=O)CCCCCCCCCCC(=O)N3c4ccc(Cl)cc4N=C(N4CCN(C)CC4)c4ccccc43)c3ccccc32)CC1	> 10000 nM	< 5	
CN1CCN(C2=Nc3cc(Cl)ccc3N(C(=O)CCCCCCCCCCCCCCCCC(=O)N3c4ccc(Cl)cc4N=C(N4CCN(C)CC4)c4ccccc43)c3ccccc32)CC1	> 10000 nM	< 5	
CN1CCN(C2=Nc3cc(Cl)ccc3N(C(=O)CCCCCCCCCCCCCCCCCCC(=O)N3c4ccc(Cl)cc4N=C(N4CCN(C)CC4)c4ccccc43)c3ccccc32)CC1	> 10000 nM	< 5	
CCCCCCCCCC(=O)NN1c2ccc(Cl)cc2N=C(N2CCN(C)CC2)c2ccccc21	8940 nM		
CN1CCN(C2=Nc3cc(Cl)ccc3N(NC(=O)CCCCCCC(=O)NN3c4ccc(Cl)cc4N=C(N4CCN(C)CC4)c4ccccc43)c3ccccc32)CC1	2440 nM		
CN1CCN(C2=Nc3cc(Cl)ccc3N(NC(=O)CCCCCCCCC(=O)NN3c4ccc(Cl)cc4N=C(N4CCN(C)CC4)c4ccccc43)c3ccccc32)CC1	> 10000 nM	< 5	
CN1CCN(C2=Nc3cc(Cl)ccc3N(NC(=O)CCCCCCCCCCCCC(=O)NN3c4ccc(Cl)cc4N=C(N4CCN(C)CC4)c4ccccc43)c3ccccc32)CC1	> 10000 nM	< 5	
CN1CCN(C2=Nc3cc(Cl)ccc3N(NC(=O)CCCCCCCCCCCCCCCCC(=O)NN3c4ccc(Cl)cc4N=C(N4CCN(C)CC4)c4ccccc43)c3ccccc32)CC1	> 10000 nM	< 5	
CN1CCN(C2=Nc3cc(Cl)ccc3N(NC(=O)CCCCCCCCCCCCCCCCCCC(=O)NN3c4ccc(Cl)cc4N=C(N4CCN(C)CC4)c4ccccc43)c3ccccc32)CC1	> 10000 nM	< 5	
O=C(CCCCC(=O)NCCCN1CCN(C2=Nc3cc(Cl)ccc3Nc3ccccc32)CC1)NCCCN1CCN(C2=Nc3cc(Cl)ccc3Nc3ccccc32)CC1	87 nM		Ki ([2]; read-out: Ki): 3.6 nM; Ki ([2]; read-out: pKi (converted)): 3.16 nM
O=C(CCCCCCCCC(=O)NCCCN1CCN(C2=Nc3cc(Cl)ccc3Nc3ccccc32)CC1)NCCCN1CCN(C2=Nc3cc(Cl)ccc3Nc3ccccc32)CC1	44 nM		Ki ([2]; read-out: Ki): 1.35 nM; Ki ([2]; read-out: pKi (converted)): 1.23 nM
O=C(CCCCCCCCCCCCCCCCCCC(=O)NCCCN1CCN(C2=Nc3cc(Cl)ccc3Nc3ccccc32)CC1)NCCCN1CCN(C2=Nc3cc(Cl)ccc3Nc3ccccc32)CC1			IC50 ([1]; cho, read-out: IC50): > 10000 nM; IC50 ([1]; read-out: pIC50 (converted)): > 10000 nM

Source: ChEMBL document CHEMBL2016514, “Homobivalent ligands of the atypical antipsychotic clozapine: design, synthesis, and pharmacological evaluation” (J Med Chem, 2012)
